From patent publication US11066395B2, “Dimethylaminoethanol salt of a GLP-1 receptor modulator” (RECEPTOS LLC, priority 2016, dated 2021)
Structures can show the parent of a compound that is named as a salt. Where two headings read alike, the source gives them in different places. Marks after values point to notes of the source that are not given here.

Assays:
[1] = counterion base; cited from earlier work
[2] = Thermodynamic solubility testing in pH 6.8 phosphate buffer; type: physicochemical; details: for solubility at 24 h: phosphate buffer, pH 6.8, aqueous buffer, thermodynamic from solid
Method: 0.5 mL of that buffer is then added to 5-10 mg of each crystalline salt hit. The pH of the resultant slurries are measured after 10 minutes and, if needed, adjusted back to pH 6.8 using the individual buffer component. Samples were stirred at room temperature for 24 hours, filtered, and analyzed for concentration by HPLC.

[3] = Salt screen: storage of salts at 40° C./75% RH for 7 days, re-analysis by XRPD
Method: These resultant suspensions were temperature cycled between ambient temperature (22° C.) and 40° C. in 4 hour cycles for 72 hours. Samples were analyzed by XRPD and any remaining solid was isolated by filtration using a centrifuge and tubes with a 0.45 m filter insert. Isolated solids were allowed to dry at ambient condition and analyzed by ^1H NMR.

[4] = Stress testing of dimethylaminoethanol salt (40° C./75% RH and 80° C./ambient, 1 week), XRPD and HPLC; type: physicochemical
Method: To better understand the physical and chemical stability of the dimethylaminoethanol salt, the salt was placed under stressed condition (40° C./75% RH and 80° C./Ambient) for 1 week. The solids were then removed and analyzed via both XRPD and HPLC to determine physical and chemical stability, respectively.

[5] = pH solubility curve (buffers pH 1-pH 8, deionized water); type: physicochemical
Method: A range of buffers were made up (pH 1-pH 8) to understand the effect of pH on the measured solubility. In each case the pH is measured prior to isolation to ensure most accurate data. […] All solids were characterized by XRPD post solubility determination and shown all to be amorphous (FIG. 44), which is common when a solid is placed into aqueous conditions.

[6] = Hygroscopicity by DVS/GVS with XRPD post GVS; type: physicochemical
From the text: To determine the hygroscopicity of the dimethylaminoethanol salt the sample was submitted for DVS (FIG. 39).
The thermal event likely corresponds to the melt of the crystalline material.

[7] = Hydration study: slurry in aqueous solvents containing 10% by volume of water, XRPD; type: physicochemical; details: acetone, acetonitrile or methanol/water 90/10 by volume
Method: To understand the potential of forming hydrates the dimethylaminoethanol salt was slurried in a series of aqueous solvents, containing 10% by volume of water.
When the solids were analyzed by XRPD post hydration study (FIG. 41), the majority of solids had been rendered amorphous. Only the acetone/water mixture had any signs of crystallinity, which corresponded to the input material. […] The generation of amorphous material could be due to the high affinity of the molecule (RP-101) with solvents and water.

SMILES: NCCCC[C@H](N)C(=O)O [L-Lysine]
- LogP [1]: −1.04
- pKa 3 [1]: 2.16*

SMILES: CNC[C@H](O)[C@@H](O)[C@H](O)[C@H](O)CO [N-Methylglucamine, (2R,3R,4R,5S)-6-(methylamino)hexane-1,2,3,4,5-pentaol]
- LogP [1]: −3.37

SMILES: CCC1CCC(C2CC=C(c3cnc(-c4ccc(CC(NC(=O)c5ccc(C(C)(C)C)s5)C(=O)N5CC(C(=O)O)C5)cc4)nc3)CC2)CC1 (centres unmarked) [meglumine-RP-101]
- Solubility ([2]; aqueous, pH 6.8 phosphate buffer, room temperature, 24 hours, HPLC, listed as Meglumine (DCM)): 0.160 mg/mL
- solubility at 24 h ([2]; aqueous, pH 6.8 phosphate buffer, room temperature, 24 hours, HPLC, read-out: Solubility): 303 µg/mL
- solubility at 24 h ([2]; material obtained from 1,4-dioxane, read-out: Solubility at pH 6.8): 303 µg/mL
- solubility at 24 h ([2]; material obtained from DCM, read-out: Solubility at pH 6.8): 160 µg/mL
- Stability at 40° C./75% RH (XRPD) ([3]; material obtained from 1,4-dioxane): Only small changes
- Stability at 40° C./75% RH (XRPD) ([3]; material obtained from DCM): decrease in crystallinity
- Stability at 40° C./75% RH (XRPD) ([3]; material obtained from MEK): Only small changes

SMILES: CCC1CCC(C2CC=C(c3cnc(-c4ccc(CC(NC(=O)c5ccc(C(C)(C)C)s5)C(=O)N5CC(C(=O)O)C5)cc4)nc3)CC2)CC1 (centres unmarked) [deanol-RP-101, 2-hydroxy-N,N-dimethylethanaminium 1-(2-(5-(tert-butyl)-thiophene-2-carboxamido)-3-(4-(5-(4′-ethyl-[1,1′-bi(cyclohexan)]-3-en-4-yl)-pyrimidin-2-yl)phenyl)propanoyl)azetidine-3-carboxylate salt]
- Crystalline form by XRPD post stability (physical stability) ([4]; 40° C./75% RH): same crystalline form was present
- Crystallinity by XRPD post stability ([4]; 40° C./75% RH): decrease in crystallinity
- Purity by HPLC post stress (chemical stability) ([4]; 40° C./75% RH): 97.3%
- Crystalline form by XRPD post stability (physical stability) ([4]; 80° C./ambient): same crystalline form was present
- Purity by HPLC post stress (chemical stability) ([4]; 80° C./ambient): 96.8%
- Solubility ([5]; acidic conditions): low
- Solubility ([5]; basic conditions): rises significantly
- Solubility ([5]; deionized water): relatively high
- Hygroscopicity (DVS/GVS) [6]: the process was reversible and did not indicate the conversion to a hydrate
- XRPD post GVS compared to input material [6]: no change seen
- Hydrate formation (XRPD post hydration study) [7]: no obvious hydrate

SMILES: C[N+](C)(C)CCO.[OH-] [Choline hydroxide]
- LogP [1]: −3.70
- pKa 1 [1]: 11.00
